Experiments:
Test in all cases: relative viability (nuclei count vs DMSO), 5 days (fraction); higher = more cells survive
[1] = compound: O=c1[nH]c2ccccc2n1C1CCN(CCCC(c2ccc(F)cc2)c2ccc(F)cc2)CC1 [Pimozide]
Outline: (§1)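 After an overnight hold at 37 °C, lung cancer cell lines in 1536-well plates were pinned with five library-drug doses (not always all listed), each √10 from the next, on vehicle-anchored plates. The cells stayed 5 days without fresh medium, then a one-step fix, permeabilisation and Hoechst stain preceded 4× imaging and MetaXpress nuclear counts. A plate passed only with control CV under 25% and at least one doubling. Viability is the median, over plates, of treated-well nuclei relative to vehicle-well nuclei.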

[2] = compound: Cc1sc2c(c1C)C(c1ccc(Cl)cc1)=N[C@@H](CC(=O)OC(C)(C)C)c1nnc(C)n1-2 [JQ1]
Outline: as §1

[3] = compound: Nc1ccn([C@@H]2O[C@H](CO)[C@@H](O)[C@@H]2O)c(=O)n1 [Cytarabine]
Outline: as §1

[4] = compound: O=C(O)CCCCC(CCSCc1ccccc1)SCc1ccccc1 [CPI-613]
Outline: as §1

[5] = compound: CC(=O)O[C@@]12CO[C@@H]1C[C@H](O)[C@@]1(C)C(=O)[C@H](O)C3=C(C)[C@@H](OC(=O)[C@H](O)[C@@H](NC(=O)OC(C)(C)C)c4ccccc4)C[C@@](O)([C@@H](OC(=O)c4ccccc4)[C@H]21)C3(C)C [Docetaxel]
Outline: as §1

[6] = compound: Cc1cnc(-c2cnc(NCCNc3ccc(C#N)cn3)nc2-c2ccc(Cl)cc2Cl)[nH]1
Outline: as §1

[7] = compound: COc1cc2nccc(Oc3ccc(NC(=O)Nc4cc(C)on4)c(Cl)c3)c2cc1OC [Tivozanib]
Outline: as §1

| Cell Line | relative viability ([1]; 0.08 µM) | relative viability ([1]; 0.253 µM) | relative viability ([1]; 0.8 µM) | relative viability ([1]; 2.53 µM) | relative viability ([1]; 8 µM) | relative viability ([2]; 0.04 µM) | relative viability ([2]; 0.1265 µM) | relative viability ([2]; 0.4 µM) | relative viability ([2]; 1.265 µM) | relative viability ([2]; 4 µM) | relative viability ([3]; 0.005 µM) | relative viability ([3]; 0.01581 µM) | relative viability ([3]; 0.05 µM) | relative viability ([3]; 0.1581 µM) | relative viability ([3]; 0.5 µM) | relative viability ([4]; 5 µM) | relative viability ([4]; 15.81 µM) | relative viability ([4]; 50 µM) | relative viability ([4]; 158.11 µM) | relative viability ([4]; 500 µM) | relative viability ([5]; 0.0002 µM) | relative viability ([5]; 0.000632 µM) | relative viability ([5]; 0.002 µM) | relative viability ([5]; 0.006325 µM) | relative viability ([5]; 0.02 µM) | relative viability ([6]; 0.08 µM) | relative viability ([6]; 0.253 µM) | relative viability ([6]; 0.8 µM) | relative viability ([6]; 2.53 µM) | relative viability ([7]; 0.005 µM) | relative viability ([7]; 0.01581 µM) | relative viability ([7]; 0.05 µM) | relative viability ([7]; 0.1581 µM) | relative viability ([7]; 0.5 µM) |
| --- | --- | --- | --- | --- | --- | --- | --- | --- | --- | --- | --- | --- | --- | --- | --- | --- | --- | --- | --- | --- | --- | --- | --- | --- | --- | --- | --- | --- | --- | --- | --- | --- | --- | --- |
| SK-LU-1 | 1.02 | 1.03 | 0.986 | 0.876 | 0.858 | 1 | 0.91 | 0.91 | 0.377 | 0.238 | 0.853 | 0.868 | 0.776 | 0.433 | 0.322 | 1.04 | 0.911 | 0.995 | 0.668 | 0.473 | 0.843 | 0.64 | 0.425 | 0.329 | 0.255 | 1.12 | 0.967 | 1.06 | 1.14 | 1 | 1.02 | 1.12 | 0.928 | 1.05 |
| NCI-H2228 | 1.07 | 1.11 | 0.868 | 0.805 | 0.543 | 0.927 | 0.857 | 0.876 | 0.462 | 0.406 | 0.5 | 0.432 | 0.428 | 0.163 | 0.141 | 0.915 | 0.931 | 0.893 | 0.744 | 0.0258 | 0.749 | 0.341 | 0.2 | 0.199 | 0.144 | 1.03 | 0.887 | 1.01 | 0.864 | 0.897 | 0.866 | 0.933 | 0.965 | 0.989 |
| LOU-NH91 | 0.785 | 0.924 | 0.916 | 1.04 | 0.896 | 0.989 | 0.801 | 0.637 | 0.626 | 0.462 | 0.955 | 0.918 | 0.723 | 0.7 | 0.584 | 0.926 | 0.951 | 0.982 | 0.913 | 0.842 | 0.898 | 0.758 | 0.473 | 0.369 | 0.354 | 1.01 | 0.924 | 0.94 | 0.976 | 0.865 | 1.04 | 0.982 | 0.814 | 0.945 |
| HCC-827 | – | 1.04 | 0.955 | 1.02 | 1.01 | 1.05 | – | 0.988 | 1.11 | 0.883 | 0.765 | 0.568 | 0.417 | 0.225 | 0.196 | 0.993 | 1.02 | 1.11 | 0.908 | 0.669 | 0.943 | 1.07 | 0.916 | 0.431 | 0.328 | 1.05 | – | 1.02 | 1.02 | 1.01 | 1.05 | 1.1 | 1.09 | 1 |
| EBC-1 | 0.996 | 0.94 | 0.899 | 0.901 | 0.942 | 0.922 | 0.596 | 0.372 | 0.138 | 0.141 | 0.817 | 0.816 | 0.623 | 0.478 | 0.336 | 0.962 | 0.823 | 0.828 | 0.661 | 0.556 | 0.89 | 0.693 | 0.241 | 0.25 | 0.152 | 0.982 | 0.914 | 0.975 | 0.987 | 0.951 | 0.96 | 0.979 | 0.929 | 0.918 |
| NCI-H1975 | 0.916 | 0.941 | 0.92 | 0.966 | 0.775 | 0.953 | 0.643 | 0.782 | 0.597 | 0.53 | 1.07 | 1.08 | 0.987 | 0.546 | 0.35 | 0.919 | 0.901 | 0.984 | 0.87 | 0.075 | 0.916 | 0.702 | 0.344 | 0.213 | 0.168 | 0.859 | 0.888 | 0.813 | 0.647 | 0.842 | 0.922 | 0.991 | 0.852 | 0.786 |
| NCI-H3122 | 0.983 | 1.02 | 0.948 | 0.962 | 1.03 | 0.962 | 0.791 | 0.96 | 0.857 | 0.518 | 0.99 | 0.928 | 0.971 | 0.553 | 0.399 | 0.969 | 1.01 | 1.02 | 0.956 | 0.146 | 0.981 | 0.839 | 0.731 | 0.184 | 0.12 | 0.962 | – | 0.988 | 0.965 | 0.961 | 1.03 | 1.01 | 1.12 | 1.02 |
| NCI-H2347 | 0.911 | 0.957 | 0.828 | 0.962 | 0.986 | 0.992 | 0.771 | 0.886 | 0.709 | 0.518 | 1.07 | 0.914 | 0.825 | 0.658 | 0.661 | 1.03 | 0.866 | 0.96 | 0.776 | 0.844 | 0.973 | 0.952 | 0.726 | 0.52 | 0.459 | 1.08 | 0.894 | 0.958 | 1.09 | 0.95 | 0.997 | 1.17 | 0.939 | 1 |
| NCI-H1651 | 0.977 | 1 | 0.964 | 0.913 | 0.973 | 0.908 | 0.838 | 0.708 | 0.606 | 0.546 | 1.07 | 0.972 | 0.986 | 0.664 | 0.476 | 0.995 | 0.947 | 0.93 | 0.769 | 0.527 | 0.858 | 0.979 | 0.671 | 0.198 | 0.14 | 0.975 | 0.924 | 0.982 | 1.02 | 0.941 | 0.951 | 1.05 | 0.882 | 0.98 |
| HARA | 0.812 | 0.995 | 0.876 | 0.952 | 0.908 | 0.867 | 0.569 | 0.533 | 0.322 | 0.288 | 0.788 | 0.716 | 0.397 | 0.24 | 0.221 | 0.909 | 0.862 | 0.984 | 0.6 | 0.0433 | 0.796 | 0.46 | 0.197 | 0.188 | 0.0932 | 1.01 | 0.737 | 0.859 | 0.833 | 0.928 | 0.963 | 0.995 | 0.937 | 0.976 |

— the supplement of paper PMC10307832
